This is an account of results in patent US10537652B2, “Cyclic urea compounds as granzyme B inhibitors” (viDA Therapeutics Inc., priority 2014, dated 2020).

The test addresses T1, GzmB (Homo sapiens, UniProt P10144).
T1 construct: purchased Froelich Lab, Northshore University Health Systems Research Institute, Evanston, Ill., USA
Nature of the test: Inhibition of Fibronectin Cleavage by GzmB (Example D7). Format: biochemical. The following applies: 20 nM granzyme B, 30° C.; for inhibition at 0.62 µM: inhibitor 0.62 uM, read-out: Percent Inhibition at Inhibitor Concentration 0.62 uM; for inhibition at 5.56 µM: inhibitor 5.56 uM, read-out: Percent Inhibition at Inhibitor Concentration 5.56 uM; for inhibition at 50 µM: inhibitor 50 uM, read-out: Percent Inhibition at Inhibitor Concentration 50 uM. The method, then:
Black, 96 well high-binding assay plates (Griener Bio-one) were treated overnight at 4° C. with 40 uL of 8 ug/mL Hilyte Fluor 488 labeled Fibronectin (Cytoskeleton, Inc). After fibronectin coating, plates were washed 3 times in buffer (20 mM Tris-HCl, pH 7.4, 20 mM NaCl) then once with granzyme B assay buffer (50 mM HEPES, pH 7.5, 0.1% CHAPS). After washing, 50 uL of granzyme B assay buffer was added to each fibronectin-coated well. In a separate non-binding 96 well assay plate 5 uL of 20X inhibitor serial dilution stocks were added to 45 uL of 2.22x GzmB mix to establish inhibition (enzyme/inhibitor mixes were all prepared in granzyme B assay buffer and were incubated first at room temperature for 20 minutes, then at 30° C. for another 10 minutes). After incubation, 50 uL of this 2x enzyme/inhibitor mix was added to the corresponding coated well to initiate fibronectin cleavage (20 nM final granzyme B concentration, 8-point inhibitor dilution series starting at 50 uM). The assay was conducted at 30° C. in the TECAN plate reader (TECAN INFINITE® M1000 Pro), which was programmed to monitor the kinetic fluorescence polarization signal (filter set Ex/Em 470 nm/527 nm) with readings taken every minute, for 1 hour. Proteolytic activity was evaluated as the rate of fluorescence enhancement in the parallel emission over the linear range of the reaction. % Inhibition values were calculated from assay controls and the resulting data is shown in Table 6.

T1 sequence (P10144 21-247): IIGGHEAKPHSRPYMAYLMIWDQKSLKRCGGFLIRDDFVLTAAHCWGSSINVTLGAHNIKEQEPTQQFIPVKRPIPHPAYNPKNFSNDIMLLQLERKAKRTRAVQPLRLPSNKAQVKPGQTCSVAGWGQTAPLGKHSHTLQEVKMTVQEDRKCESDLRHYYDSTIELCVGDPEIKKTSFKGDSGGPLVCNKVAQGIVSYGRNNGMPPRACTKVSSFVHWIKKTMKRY

`CC[C@H](C)[C@H](NC(=O)CCC(=O)O)C(=O)NCC(=O)N1C(=O)NC[C@H]1C(=O)NCc1nn[nH]n1` [Compound C1, 4-(((2S,3S)-1-((2-((S)-5-(((2H-tetrazol-5-yl)methyl)carbamoyl)-2-oxoimidazolidin-1-yl)-2-oxoethyl)amino)-3-methyl-1-oxopentan-2-yl)amino)-4-oxobutanoic acid]: the inhibition at 0.62 µM was 39%, the inhibition at 5.56 µM is 69% and the inhibition at 50 µM is 86%.
Regarding `CC[C@H](C)[C@H](NC(=O)CCC(=O)O)C(=O)NCC(=O)N1C(=O)N(C2CCCCC2)C[C@H]1C(=O)NCc1nn[nH]n1` [Compound C2, 4-(((2S,3S)-1-((2-((S)-5-(((2H-TETRAZOL-5-YL)METHYL)CARBAMOYL)-3-CYCLOHEXYL-2-OXOIMIDAZOLIDIN-1-YL)-2-OXOETHYL)AMINO)-3-METHYL-1-OXOPENTAN-2-YL)AMINO)-4-OXOBUTANOIC ACID], the inhibition at 0.62 µM stood at 75%, the inhibition at 5.56 µM was determined as 91% and the inhibition at 50 µM was 96%.
